Laboratory results from the supplement of paper PMC11061612.

Experiments:
Experiment in all cases: Bliss excess, mean over the matrix (fraction); higher = more synergy
[1] = test system: 639-V (Bladder Carcinoma)
Summary of the method: (§1)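 Cell lines grown in DMEM/F12 or RPMI with 10% FBS were plated in 1536-well plates and held 24 hours at 37°C, 5% CO2 before 72 hours of exposure to two-drug dose matrices, with DMSO typically at 0.2%. CellTiter-Glo 2.0 luminescence gave viability, which was converted to inhibition. Vehicle wells were set to 0 and blank wells to 1. Combination Emax is the second-highest inhibition in the matrix, and Bliss excess is the observed combination effect minus the expected EA + EB − EA·EB, where EA and EB are the single-agent effects.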

[2] = test system: 8305C (Thyroid Gland Carcinoma)
Summary of the method: as §1

[3] = test system: CAL-51 (Breast Carcinoma)
Summary of the method: as §1

[4] = test system: CTB-1 (B-Cell Non-Hodgkin's Lymphoma)
Summary of the method: as §1

[5] = test system: EN (Endometrial Carcinoma)
Summary of the method: as §1

[6] = test system: HDLM-2 (Hodgkin's Lymphoma)
Summary of the method: as §1

[7] = test system: LU-139 (Small Cell Lung Carcinoma)
Summary of the method: as §1

[8] = test system: LoVo (Colorectal Carcinoma)
Summary of the method: as §1

[9] = test system: MDA-MB-468 (Breast Carcinoma)
Summary of the method: as §1

[10] = test system: MHH-PREB-1 (B-Cell Non-Hodgkin's Lymphoma)
Summary of the method: as §1

Mewo (Melanoma) = test system: Mewo (Melanoma)
Summary of the method: as §1

NCI-H2461 (Mesothelioma) = test system: NCI-H2461 (Mesothelioma)
Summary of the method: as §1

NCI-H28 (Mesothelioma) = test system: NCI-H28 (Mesothelioma)
Summary of the method: as §1

[11] = test system: NCI-H747 (Colorectal Carcinoma)
Summary of the method: as §1

[12] = test system: OVCAR-8 (Ovarian Carcinoma)
Summary of the method: as §1

[13] = test system: PCI-30 (Head and Neck Carcinoma)
Summary of the method: as §1

[14] = test system: RPMI-6666 (Non-Cancerous)
Summary of the method: as §1

[15] = test system: SU-DHL-6 (B-Cell Non-Hodgkin's Lymphoma)
Summary of the method: as §1

[16] = test system: SUP-T1 (T-Lymphoblastic Leukemia)
Summary of the method: as §1

[17] = test system: UMC-11 (Other Solid Carcinomas)
Summary of the method: as §1

| Structure (SMILES) | Bliss excess [1] | Bliss excess [2] | Bliss excess [3] | Bliss excess [4] | Bliss excess [5] | Bliss excess [6] | Bliss excess [7] | Bliss excess [8] | Bliss excess [9] | Bliss excess [10] | Bliss excess (Mewo (Melanoma)) | Bliss excess (NCI-H2461 (Mesothelioma)) | Bliss excess (NCI-H28 (Mesothelioma)) | Bliss excess [11] | Bliss excess [12] | Bliss excess [13] | Bliss excess [14] | Bliss excess [15] | Bliss excess [16] | Bliss excess [17] |
| --- | --- | --- | --- | --- | --- | --- | --- | --- | --- | --- | --- | --- | --- | --- | --- | --- | --- | --- | --- | --- |
| CN(C)CCCOc1ccc(-c2ccc3ncc4c(c3c2)n(C2CCOCC2)c(=O)n4C)cn1 [AZD0156] + C=CCn1c(=O)c2cnc(Nc3ccc(N4CCN(C)CC4)cc3)nc2n1-c1cccc(C(C)(C)O)n1 [AZD1775] (first compound max 1 µM, partner max 1 µM) | -0.0232 | 0.012 | -0.0303 | 0.0101 | -0.0767 | -0.0554 | -0.0479 | -0.0533 | -0.0449 | 0.0036 | -0.05 | -0.0451 | -0.0066 | -0.0309 | -0.0053 | -0.0356 | -0.009 | -0.0384 | -0.0251 | -0.0358 |
| CN(C)CCCOc1ccc(-c2ccc3ncc4c(c3c2)n(C2CCOCC2)c(=O)n4C)cn1 [AZD0156] + CCN(CCO)CCCOc1ccc2c(Nc3cc(CC(=O)Nc4cccc(F)c4)[nH]n3)ncnc2c1 [AZD2811] (first compound max 1 µM, 7x7, partner max 1 µM) | 0.0064 | -0.0794 | 0.0226 | 0.002 | 0.0456 | -0.0208 | -0.0441 | 0.0047 | -0.0326 | 0.0053 | -0.0477 | -0.0293 | -0.0381 | -0.02 | 0.0425 | -0.013 | 0.0312 | -0.0026 | 0.0321 | -0.0622 |
| C=CCn1c(=O)c2cnc(Nc3ccc(N4CCN(C)CC4)cc3)nc2n1-c1cccc(C(C)(C)O)n1 [AZD1775] + C[C@@H]1COCCN1C2=NC(=NC(=C2)C3(CC3)[S@](=N)(=O)C)C4=C5C=CNC5=NC=C4 [AZD6738] (first compound max 1 µM, partner max 10 µM) | 0.0455 | -0.122 | 0.0981 | -0.0464 | – | -0.0511 | -0.0149 | -0.0212 | 0.0344 | 0.0075 | 0.026 | -0.081 | 0.0066 | -0.0002 | 0.0818 | 0.0406 | -0.0165 | 0.0458 | -0.0352 | -0.0454 |
| CN(CCO)CC[C@H](CSc1ccccc1)Nc1ccc(S(=O)(=O)NC(=O)c2ccc(N3CCC([C@@H](O)c4ccccc4-c4ccc(Cl)cc4)CC3)cc2)cc1S(=O)(=O)C(F)(F)F [AZD4320] + CN(C)CCCOc1ccc(-c2ccc3ncc4c(c3c2)n(C2CCOCC2)c(=O)n4C)cn1 [AZD0156] (first compound max 1 µM, 7x7, partner max 1 µM) | -0.0209 | -0.0489 | -0.034 | -0.0376 | -0.0085 | -0.0667 | -0.0164 | -0.0622 | -0.127 | 0.0075 | -0.0466 | -0.0479 | -0.0693 | -0.0546 | -0.0434 | -0.0931 | -0.0597 | – | -0.0333 | -0.0015 |
| Cc1c2c(nn1C)CSCc1cc(n(C)n1)CSc1cc(c3ccccc3c1)OCCCc1c(C(=O)O)n(C)c3c-2c(Cl)ccc13 [AZD5991] + CCN(CCO)CCCOc1ccc2c(Nc3cc(CC(=O)Nc4cccc(F)c4)[nH]n3)ncnc2c1 [AZD2811] (first compound max 1 µM, 7x7, partner max 1 µM) | 0.0649 | -0.0204 | 0.112 | -0.0167 | 0.0145 | -0.0117 | 0.0672 | -0.0257 | -0.0025 | 0.0147 | -0.0173 | 0.0185 | 0.0191 | -0.0133 | 0.0412 | 0.0256 | – | 0.0379 | 0.0561 | -0.0037 |
| NC1(C(=O)N[C@@H](CCO)c2ccc(Cl)cc2)CCN(c2ncnc3[nH]ccc23)CC1 [Capivasertib] + C[C@@H]1COCCN1C2=NC(=NC(=C2)C3(CC3)[S@](=N)(=O)C)C4=C5C=CNC5=NC=C4 [AZD6738] (first compound max 10 µM, 7x7, partner max 10 µM) | -0.0134 | -0.0308 | -0.0096 | – | -0.039 | -0.0451 | -0.0083 | -0.0575 | -0.0652 | -0.0486 | -0.0968 | -0.0866 | -0.0702 | -0.0316 | -0.0485 | -0.0582 | -0.118 | 0.0023 | -0.0503 | 0.0252 |
| NC1(C(=O)N[C@@H](CCO)c2ccc(Cl)cc2)CCN(c2ncnc3[nH]ccc23)CC1 [Capivasertib] + Cn1cnc2c(F)c(Nc3ccc(Br)cc3Cl)c(C(=O)NOCCO)cc21 [Selumetinib] (first compound max 10 µM, 7x7, partner max 10 µM) | -0.0183 | -0.0212 | 0.0176 | – | 0.0288 | -0.0118 | -0.0165 | -0.004 | 0.0736 | -0.0067 | 0.0069 | -0.0393 | -0.0231 | -0.0187 | 0.037 | -0.0097 | 0.0604 | 0.0255 | 0.0063 | 0.0032 |
| Cc1nc(Nc2ncc(C(=O)Nc3c(C)cccc3Cl)s2)cc(N2CCN(CCO)CC2)n1 [Dasatinib] + CC(=O)Nc1cccc(-n2c(=O)n(C3CC3)c(=O)c3c(Nc4ccc(I)cc4F)n(C)c(=O)c(C)c32)c1 [Trametinib] (first compound max 2 µM, 7x7, partner max 1 µM) | -0.0398 | 0.0279 | -0.017 | – | -0.0056 | -0.0467 | -0.0243 | 0.104 | -0.0521 | -0.0504 | 0.0254 | -0.0384 | -0.0021 | -0.0238 | 0.0396 | -0.0727 | 0.0193 | 0.0272 | -0.0967 | -0.0733 |
| CS(=O)(=O)CCNCc1ccc(-c2ccc3ncnc(Nc4ccc(OCc5cccc(F)c5)c(Cl)c4)c3c2)o1 [Lapatinib] + C[C@@H](Oc1cc(-c2cnn(C3CCNCC3)c2)cnc1N)c1c(Cl)ccc(F)c1Cl [Crizotinib] (first compound max 10 µM, 7x7, partner max 10 µM) | -0.0596 | -0.169 | -0.0029 | – | -0.0418 | -0.0545 | -0.0147 | -0.0217 | -0.0582 | -0.0164 | -0.032 | -0.0523 | -0.0342 | -0.0413 | -0.037 | -0.0917 | -0.0624 | -0.0299 | -0.0469 | -0.0964 |
| CC(=O)c1c(C)c2cnc(Nc3ccc(N4CCNCC4)cn3)nc2n(C2CCCC2)c1=O [Palbociclib] + CC1(C)CCC(CN2CCN(c3ccc(C(=O)NS(=O)(=O)c4ccc(NCC5CCOCC5)c([N+](=O)[O-])c4)c(Oc4cnc5[nH]ccc5c4)c3)CC2)=C(c2ccc(Cl)cc2)C1 [Venetoclax] (first compound max 10 µM, 7x7, partner max 1 µM) | -0.0686 | -0.0306 | 0.0055 | – | -0.0405 | 0.0073 | 0.0462 | -0.0178 | -0.0241 | -0.0187 | -0.0235 | -0.0712 | -0.0169 | 0.017 | -0.0167 | -0.0216 | -0.0674 | 0.0694 | -0.0942 | 0.0737 |
| CC(=O)c1c(C)c2cnc(Nc3ccc(N4CCNCC4)cn3)nc2n(C2CCCC2)c1=O [Palbociclib] + Cc1c2c(nn1C)CSCc1cc(n(C)n1)CSc1cc(c3ccccc3c1)OCCCc1c(C(=O)O)n(C)c3c-2c(Cl)ccc13 [AZD5991] (first compound max 10 µM, 7x7, partner max 1 µM) | -0.0492 | -0.0706 | 0.0124 | – | -0.0544 | -0.072 | 0.0198 | -0.0584 | 0.0078 | -0.0405 | -0.0291 | -0.056 | -0.0319 | -0.0196 | -0.0281 | -0.0224 | -0.0533 | 0.0709 | 0.0394 | -0.0475 |
| CC(=O)c1c(C)c2cnc(Nc3ccc(N4CCNCC4)cn3)nc2n(C2CCCC2)c1=O [Palbociclib] + Cn1cnc2c(F)c(Nc3ccc(Br)cc3Cl)c(C(=O)NOCCO)cc21 [Selumetinib] (first compound max 10 µM, 7x7, partner max 10 µM) | -0.0833 | 0.0123 | 0.0035 | – | -0.0205 | -0.0362 | 0.0109 | 0.0093 | -0.0555 | -0.0401 | -0.0844 | -0.0034 | -0.0508 | -0.0022 | -0.0412 | -0.0814 | -0.0324 | 0.167 | -0.0478 | 0.079 |
| CCc1c2c(nc3ccc(O)cc13)-c1cc3c(c(=O)n1C2)COC(=O)[C@]3(O)CC [SN-38] + O=C(c1cc(Cc2n[nH]c(=O)c3ccccc23)ccc1F)N1CCN(C(=O)C2CC2)CC1 [Olaparib] (first compound max 0.3 µM, 7x7, partner max 10 µM) | 0.0917 | 0.04 | 0.119 | 0.0546 | -0.0377 | -0.0438 | 0.0842 | 0.0556 | 0.0941 | – | 0.008 | 0.0234 | 0.0588 | 0.0512 | – | 0.0572 | 0.0394 | 0.0391 | 0.0435 | 0.035 |
